Results: US20090178145A1, “Methods and targets for identifying compounds for regulating angiogenesis” (The Procter & Gamble Company, priority 2005, published 2009)

What was measured:
[1] = system: GPR176; experiment: Zebrafish morpholino knockdown of GPR (GPR176): blood circulation and intersegmental vessel morphology; assay type: in vivo; settings: 48 hpf
Description: (§1) To assess gene function in zebrafish (Danio rario) angiogenesis, MOs directed against ETL, GPR (or GPR176) and their respective mismatch controls are microinjected into zebrafish at the 1-2 cell stage. Blood circulation through the intersegmental vessels (ISVs) is observed in live zebrafish at 48 hpf and morphology of ISVs in the tail at 48 hpf using Phy-V antibody staining is also examined as described (Seng W. L. et al., Angiogenesis. 2004; 7(3):243-53.). The sequence for the ETL morpholino is: […]. The sequence for the mismatch […] morpholino (small case letters indicate mismatches) is: GCAcGAcTTTgATTGGAcAACTcTG. The sequence for the GPR morpholino is: […]. The sequence for the mismatch […] morpholino (small case letters indicate mismatches) is: AGgTCTgCGCcTTATCCcCCTCgAT.
This effect is not seen in control MO injections.

[2] = system: ETL; experiment: Zebrafish morpholino knockdown of ETL: blood circulation and intersegmental vessel morphology; assay type: in vivo
Description: as §1
While transcriptional gene changes provide the basis for investigating ETL and GPR as regulators of vascular development, experiments are carried out to obtain functional evidence that ETL and GPR are involved in blood vessel growth and development. To accomplish this, a zebrafish model may be used with ETL or GPR morpholino oligos to reduce gene expression during vasculogenesis. […] This effect is not seen in control MO injections.

In the case of “GPR MO: morpholino oligo directed against zebrafish GPR176, sequence AGCTCTCCGCGTTATCCGCCTCCAT (SEQ ID NO 19) (all phosphorodiamidate morpholino (PMO))”, the “zebrafish affected (similar ISV phenotype as the 0.5 pmol dose)” value ([1]; 0.25 pmol GPR MO) is reported as 37%, the “body morphology in live zebrafish” value ([1]; 0.5 pmol GPR MO) is reported as “slightly curved body morphology” and the “zebrafish with abnormal connections and incomplete vessel formation of ISVs by immunostaining” value (“zebrafish … by immunostaining” below) ([1]; 0.5 pmol GPR MO, experiment 1) is reported as 76%. The “zebrafish … by immunostaining” value ([1]; 0.5 pmol GPR MO, experiment 2) was 94% and the “blood circulation through the intersegmental vessels in live zebrafish” value ([1]; 0.5 pmol GPR MO, versus mismatch control) was “visible circulatory defects”.
“ETL MO: morpholino oligo directed against zebrafish ETL, sequence GCAGGAGTTTCATTGGAGAACTGTG (SEQ ID NO 17) (all phosphorodiamidate morpholino (PMO))” was tested, and the “zebrafish affected (same ISV phenotype as the 0.5 pmol dose)” value ([2]; 0.25 pmol ETL MO, 48 hpf) was 70%, the “zebrafish … by immunostaining” value ([2]; 0.5 pmol ETL MO injected at 1-2 cell stage, 48 hpf) was 100% and the “body morphology in live zebrafish” value ([2]; 0.5 pmol ETL MO, 48 hpf) was “slightly curved body morphology”. The “blood circulation through the intersegmental vessels in live zebrafish” value ([2]; 0.5 pmol ETL MO, 48 hpf, versus mismatch control) was “visible circulatory defects” and the “phenotype of knockdown in images (FIG. 7)” value ([2]; 48 hours post fertilization, versus mismatch control) was “retarded eye formation, edema in the brain and disrupted intersegmental vessel development and disrupted blood circulation”.
